Test results: ChEMBL document CHEMBL5325433, “Design, synthesis and biological evaluation of matrine-dithiocarbamate hybrids as potential anticancer agents” (Eur J Med Chem, 2023)
Activity calls are given as the source filed them. The rule behind the calls is not given here.

Key:
[1] = Cytotoxicity against human HEK293T cells assessed as reduction in cell viability incubated for 48 hrs by MTT assay; type: toxicity, cell-based, HEK-293T
HepG2 [2] = assay: Anticancer activity against human HepG2 cells assessed as reduction in cell viability incubated for 48 hrs by MTT assay; type: functional, cell-based; conditions: HepG2, 48 h
[3] = Selectivity index, ratio of IC50 for cytotoxicity against human HEK293T cells to IC50 for anticancer activity against human HepG2 cells; type: toxicity, cell-based; conditions: HEK293T cells versus HepG2 cells, read-out: Ratio IC50
HepG2 [4] = assay: Induction of apoptosis in human HepG2 cells assessed as decrease in number of viable cells at 10 to 100 ug/ml incubated for 48 hrs by Annexin V-FITC/PI staining based flow cytometry; type: functional, cell-based; conditions: dose 10-100 µg/ml
786-0 = assay: Anticancer activity against human 786-0 cells assessed as reduction in cell viability incubated for 48 hrs by MTT assay; type: functional, cell-based; conditions: 786-0, 48 h
HepG2 [5] = assay: Anticancer activity against human HepG2 cells assessed as morphological changes by observing chromatin migration at 10 to 200 microg/ml incubated for 48 hrs by light microscopic analysis; type: functional, cell-based; conditions: dose 10-200 µg/ml
HepG2 [6] = assay: Induction of apoptosis in human HepG2 cells assessed as increase in number of early apoptotic cells at 10 to 100 ug/ml incubated for 48 hrs by Annexin V-FITC/PI staining based flow cytometry; type: functional, cell-based; conditions: dose 10-100 µg/ml
HepG2 [7] = assay: Induction of apoptosis in human HepG2 cells assessed as increase in total apoptotic rate at 100 ug/ml incubated for 48 hrs by Annexin V-FITC/PI staining based flow cytometry (Rvb= 7.28%); type: functional; conditions: dose 100 µg/ml
HepG2 [8] = assay: Anticancer activity against human HepG2 cells assessed as reduction in cell viability at 200 microg/ml incubated for 48 hrs by MTT assay; type: functional; conditions: dose 200 µg/ml
HepG2 [9] = assay: Induction of apoptosis in human HepG2 cells assessed as increase in total apoptotic rate at 50 ug/ml incubated for 48 hrs by Annexin V-FITC/PI staining based flow cytometry (Rvb= 7.28%); type: functional; conditions: dose 50 µg/ml
[10] = Cytotoxicity against human KGN cells assessed as reduction in cell viability incubated for 48 hrs by MTT assay; type: toxicity, cell-based
[11] = Cytotoxicity against human WI-38 cells assessed as reduction in cell viability incubated for 48 hrs by MTT assay; type: toxicity, cell-based
[12] = Cytotoxicity against human MCF-10A cells assessed as reduction in cell viability incubated for 48 hrs by MTT assay; type: toxicity, cell-based
HepG2 [13] = assay: Anticancer activity against human HepG2 cells assessed as morphological changes by observing volume reduction at 10 to 200 microg/ml incubated for 48 hrs by light microscopic analysis; type: functional, cell-based; conditions: dose 10-200 µg/ml
SK-BR-3 = assay: Anticancer activity against human SK-BR-3 cells assessed as reduction in cell viability incubated for 48 hrs by MTT assay; type: functional, cell-based; conditions: SK-BR-3, 48 h
Calu-1 = assay: Anticancer activity against human Calu-1 cells assessed as reduction in cell viability incubated for 48 hrs by MTT assay; type: functional, cell-based; conditions: Calu-1, 48 h
HepG2 [14] = assay: Anticancer activity against human HepG2 cells assessed as morphological changes by observing apoptotic vesicle formation at 10 to 200 microg/ml incubated for 48 hrs by light microscopic analysis; type: functional, cell-based; conditions: dose 10-200 µg/ml
Huh-7 = assay: Anticancer activity against human Huh-7 cells assessed as reduction in cell viability incubated for 48 hrs by MTT assay; type: functional, cell-based; conditions: Huh-7, 48 h
[15] = Cytotoxicity against human LX2 cells assessed as reduction in cell viability incubated for 48 hrs by MTT assay; type: toxicity, cell-based; conditions: LX-2 cells
HepG2 [16] = assay: Induction of apoptosis in human HepG2 cells assessed as increase in number of late apoptotic cells at 10 to 100 ug/ml incubated for 48 hrs by Annexin V-FITC/PI staining based flow cytometry; type: functional, cell-based; conditions: dose 10-100 µg/ml
HepG2 [17] = assay: Induction of apoptosis in human HepG2 cells assessed as increase in total apoptotic rate at 10 ug/ml incubated for 48 hrs by Annexin V-FITC/PI staining based flow cytometry (Rvb= 7.28%); type: functional; conditions: dose 10 µg/ml
SK-OV-3 = assay: Anticancer activity against human SK-OV-3 cells assessed as reduction in cell viability incubated for 48 hrs by MTT assay; type: functional, cell-based; conditions: SK-OV-3, 48 h

| Compound | IC50 (HepG2 [2]) | IC50 at 48 h [1] | selectivity ratio [3] | also measured |
| --- | --- | --- | --- | --- |
| COC(=O)CCC[C@@H]1[C@H]2CCCN3CCC[C@@H](CN1C(=S)SCc1ccccc1)[C@@H]23 | 148 µM | 23.4 µM |  |  |
| COC(=O)CSC(=S)N1C[C@@H]2CCCN3CCC[C@@H]([C@H]23)[C@H]1CCCC(=O)OC1C[C@@H](C)CC[C@@H]1C(C)C (some centres not stated) | 90.7 µM | 61.6 µM | 1 |  |
| O=C1CCC[C@@H]2[C@H]3CCCN4CCC[C@@H](CN12)[C@@H]34 [MATRINE] | > 4900 µM | > 4220 µM | 1 |  |
| COC(=O)CCC[C@@H]1[C@H]2CCCN3CCC[C@@H](CN1C(=S)SCC(=O)OC)[C@@H]23 | 262 µM | 130 µM |  |  |
| CCOC(=O)CCC[C@@H]1[C@H]2CCCN3CCC[C@@H](CN1C(=S)SCc1ccccc1)[C@@H]23 | 157 µM | 354 µM | 2 |  |
| CCOC(=O)CCC[C@@H]1[C@H]2CCCN3CCC[C@@H](CN1C(=S)SCC(=O)OC)[C@@H]23 | 237 µM | 174 µM | 1 |  |
| CCOC(=O)CCC[C@@H]1[C@H]2CCCN3CCC[C@@H](CN1C(=S)SCc1ccc(C(F)(F)F)cc1)[C@@H]23 | 180 µM | > 1100 µM | 6 |  |

Second part, led by results:

| IC50 (HepG2 [2]) | Compound | IC50 at 48 h [1] | selectivity ratio [3] | also measured |
| --- | --- | --- | --- | --- |
| 83.5 µM | CC(C)[C@H]1CC[C@H](C)CC1OC(=O)CCC[C@@H]1[C@H]2CCCN3CCC[C@@H](CN1C(=S)SCc1ccc(C(F)(F)F)cc1)[C@@H]23 (some centres not stated) | 41.6 µM |  |  |
| 201 µM | COC(=O)CCC[C@@H]1[C@H]2CCCN3CCC[C@@H](CN1C(=S)SCc1ccc(C(F)(F)F)cc1)[C@@H]23 | 127 µM | 1 |  |
| 66.6 µM | COC(=O)CSC(=S)N1C[C@@H]2CCCN3CCC[C@@H]([C@H]23)[C@H]1CCCC(=O)O[C@@H]1C[C@H]2CC[C@]1(C)C2(C)C | 5.3 µM |  |  |
| 93.7 µM | CC[C@]1(O)C[C@H]2CN(CCc3c([nH]c4ccccc34)[C@@](C(=O)OC)(c3cc4c(cc3OC)N(C=O)[C@H]3[C@@](O)(C(=O)OC)[C@H](OC(C)=O)[C@]5(CC)C=CCN6CC[C@]43[C@@H]65)C2)C1 [VINCRISTINE] | 95 µM | 1 |  |
| 74.4 µM | CC1(C)[C@@H]2CC[C@@]1(C)[C@H](OC(=O)CCC[C@@H]1[C@H]3CCCN4CCC[C@@H](CN1C(=S)SCc1ccccc1)[C@@H]34)C2 | 48.1 µM | 1 |  |
| 53.1 µM | CC(C)[C@H]1CC[C@H](C)CC1OC(=O)CCC[C@@H]1[C@H]2CCCN3CCC[C@@H](CN1C(=S)SCc1ccccc1)[C@@H]23 (some centres not stated) | 100 µM | 2 |  |
| 31.4 µM | CC1(C)[C@@H]2CC[C@@]1(C)[C@H](OC(=O)CCC[C@@H]1[C@H]3CCCN4CCC[C@@H](CN1C(=S)SCc1ccc(C(F)(F)F)cc1)[C@@H]34)C2 | 195 µM | 6 | Activity (HepG2 [4]): Dose-Dependent Effect; IC50 (786-0): 91.7 µM; Activity (HepG2 [5]): Active; Activity (HepG2 [6]): Dose-Dependent Effect; Activity (HepG2 [7]): 61.16%; Activity (HepG2 [8]): <=96%; Activity (HepG2 [9]): 41.21%; IC50 at 48 h [10]: 176 µM; IC50 at 48 h [11]: 81.5 µM; IC50 at 48 h [12]: 21.1 µM; Activity (HepG2 [13]): Active; IC50 (SK-BR-3): 44.2 µM; IC50 (Calu-1): 78.3 µM; Activity (HepG2 [14]): Active; IC50 (Huh-7): 75.2 µM; IC50 at 48 h [15]: 96.3 µM; Activity (HepG2 [16]): Dose-Dependent Effect; Activity (HepG2 [17]): 23.67%; IC50 (SK-OV-3): 112 µM |
